In patent publication US8071654B2, “Inhibitors of thromboxane formation and action” (priority 2000, dated 2011):

How the values were obtained:
TP receptor = target: T1, TP receptor (Homo sapiens, UniProt P21731); assay: platelet aggregation evoked by I-BOP; format: cell-based; conditions: I-BOP 2 ng/0.5 ml; read-out: IC50 for inhibition of aggregation evoked by I-BOP
T1 construct: endogenous in cells; host or cells: washed human platelets
T1 sequence (P21731 1-343): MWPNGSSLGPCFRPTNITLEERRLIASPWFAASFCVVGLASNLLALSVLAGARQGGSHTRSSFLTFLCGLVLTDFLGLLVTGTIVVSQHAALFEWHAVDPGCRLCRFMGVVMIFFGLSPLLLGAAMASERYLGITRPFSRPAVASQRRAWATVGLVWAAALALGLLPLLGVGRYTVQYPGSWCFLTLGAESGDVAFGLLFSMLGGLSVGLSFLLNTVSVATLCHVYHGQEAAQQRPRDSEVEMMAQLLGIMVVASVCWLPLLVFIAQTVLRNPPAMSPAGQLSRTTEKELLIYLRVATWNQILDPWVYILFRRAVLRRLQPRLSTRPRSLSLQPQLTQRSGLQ
Description: Venous blood was obtained from healthy human subjects who had not taken NSAID's for at least two weeks. Blood was drawn into plastic syringes containing ACD. It was immediately centrifuged at 23° at 200×g for 15 min. The platelet rich plasma was transferred into fresh plastic tubes and centrifuged at 400×g for 5 min. The supernatant was discarded and the platelet sediment was resuspended in fresh medium containing NaCl (137 mM), KCl (1 mM), NaH2PO4, glucose (5.5 mM), HEPES (20 mM) and CaCl2 (1 mM) and allowed to stand at room temperature for 30 min. A platelet count was made, which determined the volume of platelet suspension needed to make up 350×10^6 cells for each measurement. The aliquot was diluted with medium to make 0.5 ml/assay/cuvette. […]
0.5 ml of platelet suspension was added to siliconized glass tubes (four at a time) and heated with magnetic stirring to 37° for 1 min in a platelet aggregometer (PAP-4C). […] The response was recorded for the next 5 min. […] In experiments where the conversion of tritiated PGH2 was to be monitored, the procedure described above was repeated with tritiated PGH2 instead of unlabeled PGH2. After extraction of the sample as described above, the radiolabeled compounds were analyzed by TLC. Dose response curves for varying amounts of test compounds were generated and the data expressed as % inhibition of collagen-induced platelet aggregation. […]

COX-2 = target: T2, COX-2 (Homo sapiens, UniProt P35354); assay: COX-2 activity, 14C-arachidonic acid conversion, TLC; format: biochemical; conditions: for COX-2 enzyme activity (% of control values, mean ± SD): n = 3
T2 construct: purchased Cayman Chemicals
T2 sequence (P35354 18-604): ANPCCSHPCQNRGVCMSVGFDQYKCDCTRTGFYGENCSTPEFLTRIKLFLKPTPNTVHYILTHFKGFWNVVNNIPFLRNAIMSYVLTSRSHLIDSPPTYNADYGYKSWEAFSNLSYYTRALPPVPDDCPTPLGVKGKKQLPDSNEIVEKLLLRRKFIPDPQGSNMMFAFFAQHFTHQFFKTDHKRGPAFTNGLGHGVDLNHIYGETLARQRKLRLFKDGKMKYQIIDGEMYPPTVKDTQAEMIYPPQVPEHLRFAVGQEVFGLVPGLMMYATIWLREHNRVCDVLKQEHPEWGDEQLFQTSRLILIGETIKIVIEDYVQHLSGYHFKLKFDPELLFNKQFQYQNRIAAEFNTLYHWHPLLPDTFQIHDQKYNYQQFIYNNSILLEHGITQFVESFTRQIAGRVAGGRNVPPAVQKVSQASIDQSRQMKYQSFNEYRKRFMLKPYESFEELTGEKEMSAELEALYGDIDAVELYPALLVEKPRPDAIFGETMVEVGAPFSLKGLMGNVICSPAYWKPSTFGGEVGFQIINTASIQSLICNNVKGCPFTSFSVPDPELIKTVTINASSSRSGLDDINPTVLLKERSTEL
Description: COX-1 and COX-2 enzyme preparations were purchased from Cayman Chemicals. Preliminary studies established that 40 U of COX-1 or COX-2 could convert about 70% of ^14C-arachidonic acid (spec. act. 55 mCi/mmol, Ontario Isotopes, Ontario, Canada; 100,000 cpm were diluted with 0.5 μg unlabeled arachidonic acid (Cayman Chemicals)/1 ml assay) into products in vitro. Different amounts of PBT-3 (10 μg and 20 μg) were added and the conversion of AA into products was assessed during a 10 min reaction in 1 ml phosphate buffer at 37°. After extraction, products were assessed by TLC (silica gel G, ethyl acetate/acetic acid, 99/1, v/v). After development, the TLC plates were scanned for radioactive products with a Berthold TLC radiochromatogram scanner and the radioactivity was quantified by scraping zones of silica gel, placing in scintillation vials, elution with 1 ml methanol and addition of scintillation medium. Radioactivity was determined by conventional counting in a beta scintillation counter.

## CCCCC/C=C\CC1CC1[C@@H](O)/C=C\C/C=C\CCCC(=O)OC (stereo partly drawn) [PBT-3, 10(S)-hydroxy-11,12-cyclopropyl-eicosa-5Z,8Z,14Z-trienoic acid methyl ester]
TP receptor
  IC50: 60 nM
COX-2; PBT-3 3.00 μM
  COX-2 enzyme activity (% of control values, mean ± SD): 109.2 ± 8.0^NS % of control
COX-2; PBT-3 30.0 μM
  COX-2 enzyme activity (% of control values, mean ± SD): 107.1 ± 14^NS % of control
COX-2; relatively large amounts of PBT-3, about 3-4 log doses greater than required to inhibit the TP receptor
  inhibition of COX-2, in words: Neither COX-1, COX-2,12-LOX nor Plase A2 was inhibited
